Assay results reported in the supplement of paper PMC4862054.
Blank lines part the entries; values can stand above or below the compound they belong to.

What was measured:
Conditions in all cases: 72 h
BT-474 [1] = tested on: BT-474
Procedure, shortened: (§1)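 In this assay, breast cancer cell lines spent 72 h with compound at 5 concentrations in 10-fold steps over a compound-specific 10,000-fold range. The first readout was cell death by CellTox Green fluorescence, and the second was viability by CellTiter-Glo luminescence, each normalised per plate to 0.1 % DMSO and a positive kill control. EC50 came from the dose-response curves, censored at the top concentration.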

BT-549 [2] = tested on: BT-549
Procedure, shortened: as §1

CAL-120 [3] = tested on: CAL-120
Procedure, shortened: as §1

CAL-148 [4] = tested on: CAL-148
Procedure, shortened: as §1

CAL-51 [5] = tested on: CAL-51
Procedure, shortened: as §1

CAL-85-1 [6] = tested on: CAL-85-1
Procedure, shortened: as §1

DU-4475 [7] = tested on: DU-4475
Procedure, shortened: as §1

HCC1143 [8] = tested on: HCC1143
Procedure, shortened: as §1

HCC1599 [9] = tested on: HCC1599
Procedure, shortened: as §1

HCC1937 [10] = tested on: HCC1937
Procedure, shortened: as §1

HDQ-P1 [11] = tested on: HDQ-P1
Procedure, shortened: as §1

Hs578T [12] = tested on: Hs578T
Procedure, shortened: as §1

MCF-10A [13] = tested on: MCF-10A
Procedure, shortened: as §1

MDA-MB-231 [14] = tested on: MDA-MB-231
Procedure, shortened: as §1

MDA-MB-436 [15] = tested on: MDA-MB-436
Procedure, shortened: as §1

MDA-MB-453 [16] = tested on: MDA-MB-453
Procedure, shortened: as §1

MDA-MB-468 [17] = tested on: MDA-MB-468
Procedure, shortened: as §1

MFM-223 [18] = tested on: MFM-223
Procedure, shortened: as §1

SK-BR-3 [19] = tested on: SK-BR-3
Procedure, shortened: as §1

CAL-148 [20] = tested on: CAL-148; remark: listed apart in the source
Method: (§2)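 Drug sensitivity and resistance testing (DSRT) of breast cancer cell lines in 384-well plates, 5 concentrations in 10-fold dilutions over a compound-specific 10,000-fold range. After 72 h, cytotoxicity was read by CellTox Green fluorescence and viability by CellTiter-Glo luminescence (multiplexed), normalised to DMSO and benzethonium chloride controls. EC50 is the inflection point of the fitted dose-response curve (bottom asymptote free, so it can be relative for partial curves) and is censored at the highest tested concentration. Rows with DSS 0 (no meaningful response) were excluded.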

Hs578T [21] = tested on: Hs578T; remark: listed apart in the source
Method: as §2

MFM-223 [22] = tested on: MFM-223; remark: listed apart in the source
Method: as §2

HCC1599 [23] = tested on: HCC1599; remark: listed apart in the source
Procedure, shortened: (§3)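 Breast cancer cell lines in 20 µl suspension were seeded onto 384-well plates pre-loaded with compound dissolved in 5 µl medium, then incubated 72 h. For viability, 2.5 µl CellTiter-Blue was added for 2 h at 37 °C and fluorescence read at 560/590 nm. Each plate was normalised to vehicle and a positive kill control and checked by Z'-factor. EC50 comes from the fitted percent-inhibition dose-response curve, censored at the highest concentration; rows with zero drug sensitivity score were dropped.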

CAL-148 [24] = tested on: CAL-148; remark: listed apart in the source
Procedure, shortened: as §3

CAL-51 [25] = tested on: CAL-51; remark: listed apart in the source
Procedure, shortened: as §3

MDA-MB-453 [26] = tested on: MDA-MB-453; remark: listed apart in the source
Procedure, shortened: as §3

BT-474 [27] = tested on: BT-474; remark: listed apart in the source
Procedure, shortened: as §3

MDA-MB-468 [28] = tested on: MDA-MB-468; remark: listed apart in the source
Procedure, shortened: as §3

MFM-223 [29] = tested on: MFM-223; remark: listed apart in the source
Procedure, shortened: as §3

SK-BR-3 [30] = tested on: SK-BR-3; remark: listed apart in the source
Procedure, shortened: as §3

DU-4475 [31] = tested on: DU-4475; remark: listed apart in the source
Procedure, shortened: as §3

HCC1143 [32] = tested on: HCC1143; remark: listed apart in the source
Procedure, shortened: as §3

HCC1937 [33] = tested on: HCC1937; remark: listed apart in the source
Procedure, shortened: as §3

CAL-85-1 [34] = tested on: CAL-85-1; remark: listed apart in the source
Procedure, shortened: as §3

HDQ-P1 [35] = tested on: HDQ-P1; remark: listed apart in the source
Procedure, shortened: as §3

BT-549 [36] = tested on: BT-549; remark: listed apart in the source
Procedure, shortened: as §3

CAL-120 [37] = tested on: CAL-120; remark: listed apart in the source
Procedure, shortened: as §3

Hs578T [38] = tested on: Hs578T; remark: listed apart in the source
Procedure, shortened: as §3

MDA-MB-231 [39] = tested on: MDA-MB-231; remark: listed apart in the source
Procedure, shortened: as §3

MDA-MB-436 [40] = tested on: MDA-MB-436; remark: listed apart in the source
Procedure, shortened: as §3

CAL-85-1 [41] = tested on: CAL-85-1; remark: listed apart in the source
Method: as §2

MCF-10A [42] = tested on: MCF-10A; remark: listed apart in the source
Method: as §2

MDA-MB-453 [43] = tested on: MDA-MB-453; remark: listed apart in the source
Method: as §2

MDA-MB-468 [44] = tested on: MDA-MB-468; remark: listed apart in the source
Method: as §2

EC50, CellTiter-Glo (BT-474 [1]): 0.0319 µM | EC50, CellTiter-Glo (BT-549 [2]): 0.0227 µM | EC50, CellTiter-Glo (HCC1143 [8]): 0.0382 µM | EC50, CellTiter-Glo (HCC1599 [9]): 0.0288 µM | EC50, CellTiter-Glo (HCC1937 [10]): 0.173 µM | EC50, CellTiter-Glo (MDA-MB-231 [14]): 0.0374 µM | EC50, CellTiter-Glo (MDA-MB-436 [15]): 0.0236 µM | EC50, CellTiter-Glo (MDA-MB-453 [16]): 0.0168 µM | EC50, CellTiter-Glo (MDA-MB-468 [17]): 0.0406 µM | EC50, CellTiter-Glo (SK-BR-3 [19]): 0.00843 µM
Structure (SMILES): CC(C)n1nc(-c2ccc3oc(N)nc3c2)c2c(N)ncnc21 [INK128]
EC50, CellTiter-Glo (CAL-120 [3]): 0.0278 µM | EC50, CellTiter-Glo (CAL-148 [4]): 0.0322 µM | EC50, CellTiter-Glo (CAL-51 [5]): 0.0159 µM | EC50, CellTiter-Glo (CAL-85-1 [6]): 0.0255 µM | EC50, CellTiter-Glo (DU-4475 [7]): 0.188 µM | EC50, CellTiter-Glo (HDQ-P1 [11]): 0.024 µM | EC50, CellTiter-Glo (Hs578T [12]): 0.0278 µM | EC50, CellTiter-Glo (MCF-10A [13]): 0.043 µM | EC50, CellTiter-Glo (MFM-223 [18]): 0.0154 µM | EC50, CellTox Green (CAL-148 [20]): 0.0569 µM | EC50, CellTox Green (Hs578T [21]): 0.13 µM | EC50, CellTox Green (MFM-223 [22]): 0.494 µM

EC50, CellTiter-Glo (BT-474 [1]): 2.44 µM | EC50, CellTiter-Glo (BT-549 [2]): 2.34 µM | EC50, CellTiter-Glo (HCC1143 [8]): 3.91 µM | EC50, CellTiter-Glo (HCC1599 [9]): 4.45 µM | EC50, CellTiter-Glo (HCC1937 [10]): 4.19 µM | EC50, CellTiter-Glo (MDA-MB-231 [14]): 3.02 µM | EC50, CellTiter-Glo (MDA-MB-436 [15]): 6.15 µM | EC50, CellTiter-Glo (MDA-MB-453 [16]): 5.31 µM | EC50, CellTiter-Glo (MDA-MB-468 [17]): 2.51 µM | EC50, CellTiter-Glo (SK-BR-3 [19]): 4.53 µM | EC50, CellTiter-Blue viability (MDA-MB-453 [26]): 0.082 µM | EC50, CellTiter-Blue viability (BT-474 [27]): 0.123 µM | EC50, CellTiter-Blue viability (BT-549 [36]): 0.0336 µM | EC50, CellTiter-Blue viability (HCC1143 [32]): 0.0269 µM | EC50, CellTiter-Blue viability (HCC1599 [23]): 0.105 µM | EC50, CellTiter-Blue viability (HCC1937 [33]): 0.0372 µM | EC50, CellTiter-Blue viability (MDA-MB-231 [39]): 0.0416 µM | EC50, CellTiter-Blue viability (MDA-MB-436 [40]): 0.0255 µM | EC50, CellTiter-Blue viability (MDA-MB-468 [28]): 0.0281 µM | EC50, CellTiter-Blue viability (SK-BR-3 [30]): 0.0498 µM
Structure (SMILES): CO[C@H](C(=O)[C@@H](O)[C@@H](C)O)[C@@H]1Cc2cc3cc(O[C@H]4C[C@@H](O[C@@H]5C[C@@H](O)[C@H](O)[C@@H](C)O5)[C@H](O)[C@@H](C)O4)c(C)c(O)c3c(O)c2C(=O)[C@H]1O[C@H]1C[C@@H](O[C@@H]2C[C@@H](O)[C@@H](O[C@@H]3C[C@](C)(O)[C@H](O)[C@@H](C)O3)[C@@H](C)O2)[C@H](O)[C@@H](C)O1 [Plicamycin]
EC50, CellTiter-Glo (CAL-120 [3]): 6.76 µM | EC50, CellTiter-Glo (CAL-148 [4]): 4 µM | EC50, CellTiter-Glo (CAL-51 [5]): 0.24 µM | EC50, CellTiter-Glo (CAL-85-1 [6]): 4.27 µM | EC50, CellTiter-Glo (DU-4475 [7]): 3.22 µM | EC50, CellTiter-Glo (HDQ-P1 [11]): 5.65 µM | EC50, CellTiter-Glo (Hs578T [12]): 4.22 µM | EC50, CellTiter-Glo (MCF-10A [13]): 4.12 µM | EC50, CellTiter-Glo (MFM-223 [18]): 7.03 µM | EC50, CellTiter-Blue viability (CAL-148 [24]): 0.0736 µM | EC50, CellTiter-Blue viability (CAL-51 [25]): 0.124 µM | EC50, CellTiter-Blue viability (CAL-85-1 [34]): 0.0837 µM | EC50, CellTiter-Blue viability (DU-4475 [31]): 0.0488 µM | EC50, CellTiter-Blue viability (HDQ-P1 [35]): 0.0845 µM | EC50, CellTiter-Blue viability (CAL-120 [37]): 0.0471 µM | EC50, CellTiter-Blue viability (Hs578T [38]): 0.0308 µM | EC50, CellTiter-Blue viability (MFM-223 [29]): 0.168 µM | EC50, CellTox Green (CAL-85-1 [41]): 8.29 µM | EC50, CellTox Green (Hs578T [21]): 6.42 µM | EC50, CellTox Green (MCF-10A [42]): 2.85 µM | EC50, CellTox Green (MDA-MB-453 [43]): 7.42 µM | EC50, CellTox Green (MDA-MB-468 [44]): 0.39 µM

The next lines start with the compound.

Structure (SMILES): O=C(O)CC[C@H]1CC[C@@](c2cc(F)ccc2F)(S(=O)(=O)c2ccc(Cl)cc2)CC1 [MK-0752]
EC50, CellTiter-Blue viability (HCC1599 [23]): 0.0702 µM

Structure (SMILES): NC1(c2ccc(-c3nc4ccn5c(=O)[nH]nc5c4cc3-c3ccccc3)cc2)CCC1 [MK-2206]
EC50, CellTiter-Glo (BT-549 [2]): 0.137 µM | EC50, CellTiter-Glo (CAL-148 [4]): 0.279 µM | EC50, CellTiter-Glo (DU-4475 [7]): > 1 µM | EC50, CellTiter-Glo (Hs578T [12]): > 1 µM | EC50, CellTiter-Glo (MDA-MB-453 [16]): 0.472 µM | EC50, CellTiter-Glo (MFM-223 [18]): 0.436 µM | EC50, CellTiter-Glo (SK-BR-3 [19]): 0.28 µM | EC50, CellTiter-Blue viability (CAL-148 [24]): 0.79 µM | EC50, CellTiter-Blue viability (CAL-51 [25]): 0.942 µM | EC50, CellTiter-Blue viability (MDA-MB-453 [26]): 0.436 µM | EC50, CellTiter-Blue viability (BT-474 [27]): 0.192 µM | EC50, CellTiter-Blue viability (MDA-MB-468 [28]): 0.131 µM | EC50, CellTiter-Blue viability (MFM-223 [29]): 0.369 µM | EC50, CellTiter-Blue viability (SK-BR-3 [30]): 0.116 µM | EC50, CellTox Green (CAL-148 [20]): 0.478 µM

Structure (SMILES): NC(=O)c1cccc2cn(-c3ccc([C@@H]4CCCNC4)cc3)nc12 [MK-4827]
EC50, CellTiter-Glo (CAL-148 [4]): 2.63 µM | EC50, CellTiter-Glo (DU-4475 [7]): 1.09 µM | EC50, CellTiter-Glo (MDA-MB-436 [15]): 0.601 µM | EC50, CellTiter-Glo (MDA-MB-468 [17]): 9.35 µM | EC50, CellTiter-Blue viability (CAL-148 [24]): 2.33 µM | EC50, CellTiter-Blue viability (CAL-51 [25]): 1.78 µM | EC50, CellTiter-Blue viability (DU-4475 [31]): 4.42 µM | EC50, CellTiter-Blue viability (HCC1143 [32]): 1.66 µM | EC50, CellTiter-Blue viability (HCC1937 [33]): 1.33 µM
